Reference: patent publication EP0167954A2, “1-Hydroxy-cytorhodines, a microbiological method for their preparation and their use as cytostatic agents” (HOECHST AKTIENGESELLSCHAFT, priority 1984, dated 1986)
In brackets after ≈: the same amount, converted by molar mass. Where two headings read alike, the source gives them in different places.

Key:
[1] = test system: L1210 Leukämiezellen der Maus; experiment: Proliferation assay (incorporation of C14-labelled thymidine); assay type: cell-based; settings: Mus musculus
Description: (§1) Die Bestimmung der zytostatischen Wirksamkeit der hier beschriebenen Verbindungen erfolgte an L1210 Leukämiezellen der Maus. Im einzelnen wurden folgende Testsysteme verwendet:
Bei dieser Methode wird in vitro nach Inkubation der Zellen mit unterschiedlichen Konzentrationen der Testsubstanz ermittelt, inwieweit die Zellen radioaktive DNA-Vorläufer (z.B. C14 markiertes Thymidin) einbauen können. Unbehandelte L1210 Zellen werden den gleichen Testbedingungen unterworfen und dienen als Kontrolle. Im folgenden ist die Methode kurz beschrieben.
L1210 Zellen in exponentieller Wachstumsphase (5 x 10^3/ml in RPMI 1640) werden in einer Mikrotiterplatte 72 Stunden mit unterschiedlichen Konzentrationen der Testsubstanz inkubiert (37°C, 5 % C021 95 % relative Luftfeuchte). Kontrolle bestehen aus Zellen, die lediglich mit frischem Medium inkubiert werden. Alle Bestimmungen werden als 4fach Bestimmungen durchgeführt. Nach 65 Stunden werden 50 µl C-1 14 Thymidin (1,5 µc/ml) zugegeben, um die DNA der Zelle radioaktiv zu markieren. Nach 7 Stunden Inkubation werden die Zellen abgesaugt, die DNA mit 5%iger Trichloressigsäure gefällt und nacheinander mit Wasser bzw. Methanol gewaschen.
Nach Trocknung bei 50°C wird die in die DNA eingebaute Radioaktivität nach Zugabe von 5 ml Szintillationsflüssigkeit ermittelt.
Die Ergebnisse werden angegeben als Verhältnis des Szintillationsindex nach Inkubation mit der Testsubstanz in Prozent der unbehandelten Kontrolle. Aus den so erhaltenen Meßwerten wird die Dosiswirkungskurve ermitelt und graphisch die IC50, d.h. die Konzentration, die unter Testbedingungen den Einbau von radioaktivem Thymidin um 50 % gegenüber der Kontrolle erniedrigt, ermittelt. Die IC50 Werte der hier beschriebenen Verbindungen im Vergleich zu Adriamycin (ADM) werden in der Tabelle 1 zusammengefaßt.

L1210 Leukämiezellen = experiment: Colony formation of L1210 leukaemia cells in soft agar; assay type: cell-based, Maus; settings: Mus musculus
Description: as §1
b) Koloniebildung von L1210 Leukämiezellen in soft agar.
Diese Methode dient zum Nachweis eines Einflusses der Testsubstanzen auf das Wachstumsverhalten der Zellen über mehrere Generationen (bei einer Zellzykluszeit von 10-12 Stunden werden in der Testzeit von 7 Tagen ca. 14 aufeinanderfolgende Generationen beobachtet).
Zytostatisch wirksame Substanzen bewirken in diesem Test eine Reduktion der zu beobachtenden Koloniezahl gegenüber einer unbehandelten Kontrolle. Im einzelnen wird der Test wie folgt durchgeführt:
500 Leukämiezellen pro Platte werden mit unterschiedlichen Konzentrationen von Testsubstanz 1 Stunde bei 37°C inkubiert. Anschließend werden die Zellen zweimal mit McCoy5A Medium gewaschen und schließlich in Petrischalen nach Zusatz von 0,3 % Agar ausgegossen. Kontrollen werden lediglich mit frischem Medium inkubiert. Anstelle der lstündigen Inkubation werden in manchen Fällen unterschiedliche Konzentrationen und Testsubstanz der oberen Agarschicht zugemischt, um so eine kontinuierliche Exposition der Zellen über die gesamte Inkubationszeit zu erreichen. Nach Erstarren des Agars werden die Platten im Brutschrank 7 Tage bei 37°C inkubiert (5 % C02, 95 % relative Luftfeuchtigkeit). Anschließend wird die Anzahl der entstandenen Kolonien mit einem Durchmesser 60 p gezählt. Die Ergebnisse werden angegeben als Koloniezahl in behandelten Agarplatten in Prozent der unbehandelten Kontrolle. Aus der so erhaltenen Dosiswirkungskurve wird die IC50 als Maß für die Wirksamkeit der Substanz ermittelt. Die Ergebnisse für die hier beschriebenen Verbindungen im Vergleich zu Adriamycin sind in der Tabelle 1 zusammengefaßt.

[2] = L1210, read-out: Proliferationstest IC50
[3] = L1210, 168 h, read-out: Koloniebildungstest IC50, 7 Tage Inkubation
[4] = L1210, read-out: Koloniebildungstest IC50, 1 Stunde Inkubation

IC50 ([1]; L1210 cells, 72 h incubation with test substance, C14 thymidine added after 65 h, IC50 read graphically, read-out: Proliferationstest IC50) | IC50 (L1210 Leukämiezellen; 168 h, L1210 cells in soft agar, continuous exposure (substance mixed into upper agar layer), 7 days at 37°C, read-out: Koloniebildungstest IC50, 7 Tage Inkubation) | IC50 (L1210 Leukämiezellen; L1210 cells, 1 h incubation with substance at 37°C, washed, then 7 days in soft agar, read-out: Koloniebildungstest IC50, 1 Stunde Inkubation) | Compound | IC50 [1, 2] | IC50 (L1210 Leukämiezellen; [3]) | IC50 (L1210 Leukämiezellen; [4])
2.8 ng/mL (≈ 2.39 nM) | 0.45 ng/mL (≈ 0.385 nM) | 2.4 ng/mL (≈ 2.05 nM) | CCC1(O)CC(OC2CC(N(C)C)C(OC3CCC(OC4C=CC(=O)C(C)O4)C(C)O3)C(C)O2)c2c(O)c3c(c(O)c2C1OC1CC(N(C)C)C(OC2CCC(OC4CCC(O)C(C)O4)C(C)O2)C(C)O1)C(=O)c1c(O)ccc(O)c1C3=O (stereo not drawn) [1-OH-Cytorhodin V, 1-Hydroxy-Cytorhodin V] |  |  | 
 |  |  | CCC1(O)CC(OC2CC(N(C)C)C(OC3CCC(OC4CCC(O)C(C)O4)C(C)O3)C(C)O2)c2c(O)c3c(c(O)c2C1OC1CC(N(C)C)C(OC2CCC(OC4CCC(O)C(C)O4)C(C)O2)C(C)O1)C(=O)c1c(O)ccc(O)c1C3=O (stereo not drawn) [1-OH-Cytorhodin A, 1-Hydroxy-Cytorhodin A] | 3 ng/mL (≈ 2.56 nM) | 2.8 ng/mL (≈ 2.39 nM) | 26 ng/mL (≈ 22.2 nM)
 |  |  | COc1cccc2c1C(=O)c1c(O)c3c(c(O)c1C2=O)C[C@@](O)(C(=O)CO)C[C@@H]3O[C@H]1C[C@H](N)[C@H](O)[C@H](C)O1 [ADM, Adriamycin, reference compound] | 6 ng/mL (≈ 11 nM) | 22 ng/mL (≈ 40.5 nM) | 44 ng/mL (≈ 81 nM)
